Measured values published in patent US20230095021A1, “MODULATORS OF TDP-43” (Alteron Therapeutics, Inc., priority 2019, published 2023).

How the values were obtained:
TDP43-His = biological target: T1, TDP43-His (Homo sapiens, UniProt Q13148); assay: Expression of histidine-tagged TDP-43 in E. coli whole cell lysates; assay type: cell-based; details: 60 μM ALT-59 with 2 μg/ml PMBN, 0.5 mM IPTG, Rosetta (DE3) cells, Coomassie stain
T1 construct: made in house; host or cells: E. coli Rosetta (DE3), vector pRETb/TDP43-His; protein not purified, read in whole cell lysate
Procedure: Rosetta (DE3) cells were transformed with pRETb/TDP43-His according manufacture's instruction. After the culture from a single colony reached O.D 0.6 with shaking at 37° C. for 5 hours, it was split into six equal cultures and treated as indicated in FIG. 3. (Lane 1) un-induced blank; (Lane 2) 0.5 mM IPTG, 60 μM DMSO; (Lane 3) 0.5 mM IPTG, 60 μM ALT-59; (Lane 4) 0.5 mM IPTG, 2 μg/ml PMBN; (Lane 5) 0.5 mM IPTG, 2 μg/ml PMBN, 30 μM ALT-59; (Lane 6) 0.5 mM IPTG, 2 μg/ml PMBN, 60 μM ALT-59. Cells were cultured overnight at 25° C. on a shaker and then collected, sonicated in protein sample buffer and boiled before loading on a 10% SDS-PAGE gel. Protein were visualized by Coomassie Brilliant Blue stain.

BACE1 = assay: Screening for ALT-59 derivatives with BACE1 protein levels as indicator, U-87 MG cells; assay type: cell-based; details: 2 days, concentrations as indicated in FIGS. 15-17
Procedure: Additional experiments were performed to screen for compounds with higher potency and the ability to penetrate blood brain barrier using BACE1 protein levels as an indicator. U-87 MG cells were cultured as described previously and treated for 2 days with compounds at concentrations as indicated in FIGS. 15-17. Cells were then subjected to Western blotting analysis using anti-BACE1 and anti-beta-actin antibodies.

[1] = test system: transgenic C. elegans expressing full-length (wild-type) human TDP-43; assay: Paralysis caused by hTDP-43 expression in C. elegans; assay type: in vivo; details: 10 μM ALT-59 in NGM plates
Procedure: Wild-type N2 strain or transgenic C. elegans expressing full-length (wild-type) human TDP-43 (strain number, CL6049, Caenorhabditis Genetics Center, Minneapolis, Minn.) were placed on freshly prepared Nematode Growth Medium (NGM) petri plates with or without 10 μM ALT-59.
Uncoordinated phenotypes were imaged, and movement deficits were quantified by counting body thrashes in liquid after recording under an inverted microscope.

Phe508del-CFTR = Phe508del-CFTR localization, immunofluorescence microscopy, primary bronchial epithelial cells of a cystic fibrosis patient; assay type: cell-based, human; details: primary bronchial epithelial cells homozygous for Phe508del-CFTR, 4 μM, 3 days
Procedure: (§1) MDA-MB-231 and U-87 MG cells were cultured on cover slips under the conditions as described above. Cells were treated with DMSO or 4 μM ALT-59 for 3 days. Primary human bronchial epithelial cells isolated from cystic fibrosis patient homozygous for Phe508del-CFTR (Lifeline Cell Technology) were cultured on cover slips in BronchiaLife Cell Culture Medium supplemented with BrochiaLife LifeFactors Kit (Lifeline Cell Technology) and maintained at 37° C. in a CO2 incubator. Cells were treated with DMSO, 4 μM ALT-59, 2 μM ALT-308, or 4 μM ALT-410 for 3 days.
(§2) Cells were fixed in 4% paraformaldehyde for 15 minutes and permeabilized in 0.1% Triton X-100 for 2 minutes. After being blocked in 5% BSA (Sigma-Aldrich), cells were incubated with anti-CFTR antibody (Alomone Labs) followed by Alexa Fluor 488 anti-rabbit secondary antibody. Reagents were buffered in GIBCO PBS (Phosphate-Buffered Saline). Images were taken using Carl Zeiss LSM 510 Laser Scanning Microscope. Parameters were set identical for all images.

CFTR [2] = assay: CFTR protein levels, Western blot in U-87 MG cells; assay type: cell-based
Procedure: Additional experiments were performed to determine how ALT-59 treatment affects CFTR protein levels. U-87 MG cells were maintained at 37° C. in a CO2 incubator in Dulbecco's Modified Eagle's Medium (DMEM) supplemented with 10% fetal bovine serum (FBS) and 1% of penicillin/streptomycin (Invitrogen), and were treated with DMSO, 3 μM, or 6 μM ALT-59. Cells were lysed using RIPA buffer (25 mM Tris, pH 7.4, 150 mM NaCl, 0.1% SDS, 0.5% sodium deoxycholate, 1% Triton X-100, Complete protease inhibitor cocktail). Western blotting was performed using anti-CFTR (Novus Biologicals) and anti-beta-actin (Sigma-Aldrich) antibodies. Images were obtained using Odyssey imager and quantified using the Odyssey software (LI-COR).

Beta-secretase 1 (BACE1) = assay: BACE1 protein level, Western blot in U-87 MG cells; assay type: cell-based; details: 2 days
Procedure: U-87 MG and T98G cells were maintained at 37° C. in a CO2 incubator in Dulbecco's Modified Eagle's Medium (DMEM) supplemented with 10% fetal bovine serum (FBS) and 1% of penicillin/streptomycin (Invitrogen). Cells were treated with DMSO, 3 μM, or 6 μM ALT-59 for 2 days and subjected to Western blotting analysis using the indicated antibodies. Protein bands were quantified using the ImageJ software.

LAMP2 pre-mRNA = LAMP2 pre-mRNA alternative splicing, RT-PCR; assay type: cell-based; details: MDA-MB-231 cells, 6 μM ALT-59
Procedure: (§3) Long stretches of TG repeats are found in exon 9 and intron 9 of Lamp2 gene. A shorter stretch is located in intron 10. […] RT-PCR analysis was performed to test if ALT-59 treatment affects LAMP2 alternative splicing. MDA-MB-231 cells were cultured as described above and treated with DMSO or 6 μM ALT-59. Total RNA was extracted using the RNeasy Mini Kit (Qiagen) and equal amount of RNA was reverse transcribed using the SuperScript III First-Strand Synthesis System (Invitrogen). PCR reactions were performed using forward primer located on exon 1 and a reverse primer located on exon 11. PCR samples were resolved in a 1.2% agarose gel and stained with ethidium bromide.

CFTR exon 9 = CFTR exon 9 splicing, RT-PCR; assay type: cell-based; details: MDA-MB-231 cells
Procedure: as §3
(§4) It has been reported that TDP-43 causes CFTR exon 9 skipping, ApoA2 exon 3 skipping, and POLDIP3 exon 3 inclusion. Additional experiments were performed to further confirm that TDP-43 is the target of ALT-59. RT-PCR analysis was performed as described above using the following primers for the three genes. PCR samples were analyzed by polyacrylamide gel electrophoresis and stained with ethidium bromide.

CFTR [3] = assay: CFTR localization, immunofluorescence microscopy, U-87 MG cells; assay type: cell-based; details: 4 μM, 3 days
Procedure: as §1, §2

POLDIP3 exon 3 = POLDIP3 exon 3 splicing, RT-PCR; assay type: cell-based; details: MDA-MB-231 cells
Procedure: as §3, §4

ApoA2 pre-mRNA = ApoA2 pre-mRNA splicing, RT-PCR; assay type: cell-based; details: MDA-MB-231 cells, endogenous gene
Procedure: as §3, §4

T1 sequence (Q13148 whole entry): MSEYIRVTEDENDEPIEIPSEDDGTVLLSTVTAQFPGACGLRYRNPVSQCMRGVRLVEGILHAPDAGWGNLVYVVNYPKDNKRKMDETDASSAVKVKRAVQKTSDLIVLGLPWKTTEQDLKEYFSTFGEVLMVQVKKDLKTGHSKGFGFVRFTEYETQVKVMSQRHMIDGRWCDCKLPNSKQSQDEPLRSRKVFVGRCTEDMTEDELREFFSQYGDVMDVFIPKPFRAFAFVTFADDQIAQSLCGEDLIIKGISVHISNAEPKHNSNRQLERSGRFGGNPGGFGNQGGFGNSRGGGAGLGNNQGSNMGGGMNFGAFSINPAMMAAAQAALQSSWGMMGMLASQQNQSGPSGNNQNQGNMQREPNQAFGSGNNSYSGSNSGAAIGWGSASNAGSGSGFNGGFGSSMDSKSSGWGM

For `CN(C)c1ccc(C2Nc3ccc4ccccc4c3C3=C2C(=O)CC(C)(C)C3)cc1Br` (stereo not drawn) [ALT-59, 5-(3-bromo-4-(dimethylamino)phenyl)-2,2-dimethyl-2,3,5,6-tetrahydrobenzo[a]phenanthridin-4(1H)-one], the TDP43-His protein expression (TDP43-His) was “increased protein expression”, the BACE1 protein expression (BACE1) was “capable of lowering BACE1 expression” and the “coiled body posture and uncoordinated phenotype” value [1] was “rescued the coiled body posture and uncoordinated phenotype”. For the same compound, the percentage of paralysis ([1]; without treatment 93%) was 29.5%, the “localization of Phe508del-CFTR on the plasma membrane” value (Phe508del-CFTR) was “increased localization of Phe508del-CFTR on the plasma membrane” and the “increase of CFTR300 level” value (CFTR [2]; 3 μM) was 10 fold. For the same compound, the “level of CFTR160” value (CFTR [2]; 3 μM) was “did not affect”, the “increase of CFTR160 level” value (CFTR [2]; 6 μM) was 30% and the “increase of CFTR240 level” value (CFTR [2]; 6 μM) was 3 fold. The “increase of CFTR300 level” value (CFTR [2]; 6 μM) was 18 fold, the “reduction of BACE1 protein level” value (Beta-secretase 1 (BACE1); 3 μM) was 20% and the “reduction of BACE1 protein level” value (Beta-secretase 1 (BACE1); 6 μM) was 50%. The “level of LAMP2a mRNA” value (LAMP2 pre-mRNA) was “reduces the level of LAMP2a mRNA”, the “level of LAMP2c mRNA” value (LAMP2 pre-mRNA) was “increases the level of LAMP2c mRNA” and the “CFTR exon 9 inclusion” value (CFTR exon 9) was “capable of promoting CFTR exon 9 inclusion”. For the same compound, the CFTR localization (CFTR [3]) was “redistribution of CFTR from the perinuclear region to the plasma membrane”, the “splicing of POLDIP3 exon 3” value (POLDIP3 exon 3) was “remain unchanged” and the ApoA2 splicing (ApoA2 pre-mRNA) was “blocking ApoA2 splicing”.
